Experimental data: publication PMC6193938, “Characterization of a novel AICARFT inhibitor which potently elevates ZMP and has anti-tumor activity in murine models” (Scientific Reports, 2018)
One block for each compound: values may come before it.

What was measured:
[1] = test system: MDA-MB-231met2 and NCI-H460 tumors; assay: Tumor volume versus tumor ZMP levels, three parameter logistic fit; type: in vivo, mouse; details: individual animal data after LSN3213128 treatment, read-out: IC50 of tumor ZMP level for tumor volume
Excerpt: The levels of total AMPKα and P70S6K are also shown. […] The levels of total AMPKα are also shown. […] Full images and the croppings used in this figure are shown in Supplemental Figures S14–S21.
Tumor volume decreases with increasing ZMP; however, in these solid tumors there was no evidence for AMPK activation, either using AMPK phosphorylation at T172 or downstream measures at P70S6K T389. Salvage of purines in vivo may explain the absence of purine changes; therefore, we measured levels of hypoxanthine for mouse plasma to be 0.36 ± 0.02 μM (n = 5) which was lower than that reported by Slowiaczek et al.[23]. We also quantified hypoxanthine in human plasma, finding the levels were 2.07 ± 0.01 μM (n = 5), well within the 0.45–34 μM range reported in the literature[19],[23]–[29].

[2] = target: SHMT1 (Homo sapiens, UniProt P34896); assay: Folate dependent enzyme assay, glycine derivatized with Marfey's reagent (HPLC); type: biochemical; details: read-out: Positive Control, IC50
Sequence of SHMT1 (P34896 whole entry): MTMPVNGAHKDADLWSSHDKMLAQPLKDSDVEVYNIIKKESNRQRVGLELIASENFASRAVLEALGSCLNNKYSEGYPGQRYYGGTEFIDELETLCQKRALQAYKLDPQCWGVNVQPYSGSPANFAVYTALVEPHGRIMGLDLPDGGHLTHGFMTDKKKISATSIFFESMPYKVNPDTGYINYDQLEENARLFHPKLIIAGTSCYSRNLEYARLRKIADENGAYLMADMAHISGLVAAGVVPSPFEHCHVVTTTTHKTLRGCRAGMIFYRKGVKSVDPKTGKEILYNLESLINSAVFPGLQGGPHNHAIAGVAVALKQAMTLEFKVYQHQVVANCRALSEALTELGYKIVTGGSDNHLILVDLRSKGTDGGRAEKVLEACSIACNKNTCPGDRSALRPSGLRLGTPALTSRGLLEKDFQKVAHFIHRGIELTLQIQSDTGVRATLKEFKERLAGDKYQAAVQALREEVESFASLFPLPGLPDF
Experimental: (§1) The human MTHFD2 (accession number: NM_006636.3) and MTHFD2L (accession number: NM_001144978.1) cDNAs were synthesized at GenScript. […] Bacterial BL21 (DE3) (Novagen) was used as an expression host, and protein purification is described in supplemental material.
(§2) Catalytic activity was assayed under the listed reaction conditions using a liquid chromatograph and either fluorescence or mass spectrometric detection as indicated. Reactions were carried out at RT for the reaction times given. The % response was fit to a four-parameter logistic equation using ACTIVITYBASE 4.0 to determine IC50 values.

[3] = target: MTHFD2L (Homo sapiens, UniProt Q9H903); assay: Folate dependent enzyme assay, NADH (NAD(P)H-Glo); type: biochemical; details: read-out: Positive Control, IC50
Sequence of MTHFD2L (Q9H903 46-347): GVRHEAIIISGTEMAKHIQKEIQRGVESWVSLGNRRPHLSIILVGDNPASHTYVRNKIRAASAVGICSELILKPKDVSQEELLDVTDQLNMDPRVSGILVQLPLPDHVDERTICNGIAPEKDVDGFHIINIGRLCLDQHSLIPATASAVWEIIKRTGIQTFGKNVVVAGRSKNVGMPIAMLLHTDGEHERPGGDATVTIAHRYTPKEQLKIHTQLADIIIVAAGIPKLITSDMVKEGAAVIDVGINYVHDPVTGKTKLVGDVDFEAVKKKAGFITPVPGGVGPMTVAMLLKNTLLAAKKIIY

[4] = target: ATIC (AICARFT) (Homo sapiens, UniProt P31939); assay: Folate dependent enzyme assay, conversion of ZMP to IMP (LC-MS); type: biochemical; details: read-out: Positive Control, IC50
Sequence of ATIC (AICARFT) (P31939 whole entry): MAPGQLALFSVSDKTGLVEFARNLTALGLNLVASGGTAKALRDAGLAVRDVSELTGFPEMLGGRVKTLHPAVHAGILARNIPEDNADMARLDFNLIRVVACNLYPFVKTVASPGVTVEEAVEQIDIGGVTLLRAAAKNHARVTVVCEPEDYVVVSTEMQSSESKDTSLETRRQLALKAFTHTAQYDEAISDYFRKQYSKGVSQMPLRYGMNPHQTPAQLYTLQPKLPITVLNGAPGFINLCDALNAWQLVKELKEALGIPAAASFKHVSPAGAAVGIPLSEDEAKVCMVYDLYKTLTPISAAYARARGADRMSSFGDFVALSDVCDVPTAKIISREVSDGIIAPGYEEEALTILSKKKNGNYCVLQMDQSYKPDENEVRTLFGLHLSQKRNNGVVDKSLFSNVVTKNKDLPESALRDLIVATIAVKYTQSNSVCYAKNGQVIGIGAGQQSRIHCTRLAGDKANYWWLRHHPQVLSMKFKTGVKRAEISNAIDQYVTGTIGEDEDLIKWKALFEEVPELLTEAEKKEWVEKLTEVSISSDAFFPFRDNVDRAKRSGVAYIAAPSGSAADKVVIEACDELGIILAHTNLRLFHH
Experimental: as §1, §2

[5] = target: MTHFD2 (Homo sapiens, UniProt P13995); assay: Folate dependent enzyme assay, NADH (NAD(P)H-Glo); type: biochemical; details: read-out: Positive Control, IC50
Sequence of MTHFD2 (P13995 32-350): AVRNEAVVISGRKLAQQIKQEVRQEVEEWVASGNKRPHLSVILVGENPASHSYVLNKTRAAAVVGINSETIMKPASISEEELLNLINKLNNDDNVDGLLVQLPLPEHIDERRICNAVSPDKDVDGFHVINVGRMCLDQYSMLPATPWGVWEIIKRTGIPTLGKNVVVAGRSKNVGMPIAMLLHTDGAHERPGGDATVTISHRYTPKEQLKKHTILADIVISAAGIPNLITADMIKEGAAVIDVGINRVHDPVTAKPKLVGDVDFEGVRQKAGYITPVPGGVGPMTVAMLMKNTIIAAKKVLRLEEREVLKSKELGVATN

[6] = target: T1, MTHFD1 (Homo sapiens, UniProt P11586); assay: Folate dependent enzyme assay, NADPH (NAD(P)H-Glo); type: biochemical; details: read-out: Positive Control, IC50
T1 construct: made in house; host or cells: E. coli BL21 (DE3)
T1 sequence (P11586 whole entry): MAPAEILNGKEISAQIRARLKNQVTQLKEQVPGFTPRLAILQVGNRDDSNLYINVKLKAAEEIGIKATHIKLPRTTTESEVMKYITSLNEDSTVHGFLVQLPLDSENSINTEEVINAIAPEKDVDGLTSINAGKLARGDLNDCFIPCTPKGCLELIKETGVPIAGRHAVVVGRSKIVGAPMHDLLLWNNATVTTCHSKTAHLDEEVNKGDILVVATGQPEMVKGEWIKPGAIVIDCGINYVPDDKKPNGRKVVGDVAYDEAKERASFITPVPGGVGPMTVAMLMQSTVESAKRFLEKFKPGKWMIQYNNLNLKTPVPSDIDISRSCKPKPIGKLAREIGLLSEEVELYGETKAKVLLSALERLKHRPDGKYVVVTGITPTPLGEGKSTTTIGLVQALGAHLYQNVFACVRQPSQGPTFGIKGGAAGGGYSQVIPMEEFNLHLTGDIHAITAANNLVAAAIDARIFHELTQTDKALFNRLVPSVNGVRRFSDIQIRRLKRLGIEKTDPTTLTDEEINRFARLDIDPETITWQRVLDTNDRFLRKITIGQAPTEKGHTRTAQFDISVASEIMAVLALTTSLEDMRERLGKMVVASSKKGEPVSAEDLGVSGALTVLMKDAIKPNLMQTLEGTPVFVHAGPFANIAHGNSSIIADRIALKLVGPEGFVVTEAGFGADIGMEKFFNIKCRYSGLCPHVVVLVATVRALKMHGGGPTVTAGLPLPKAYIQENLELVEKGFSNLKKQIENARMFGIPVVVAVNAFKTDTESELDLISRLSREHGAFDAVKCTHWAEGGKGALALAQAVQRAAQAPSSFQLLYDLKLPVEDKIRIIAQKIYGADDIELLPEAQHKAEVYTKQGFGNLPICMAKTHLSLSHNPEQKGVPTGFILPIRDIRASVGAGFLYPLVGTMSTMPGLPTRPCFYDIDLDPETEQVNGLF

[7] = test system: NCI-H460 (lung); assay: MS detection of ZMP in cultured cells; type: cell-based, human; details: NCI-H460; data not shown
Experimental: Cells lines were acquired from cell banks, see supplemental material, grown using the cell banks recommended culture conditions (Supplemental Table 3). In some experiments noted “low folate” the cells were washed and grown in folate free RPMI-1640 media (Gibco #27016-021) supplemented with 5 ml 1 M Hepes, 5 ml 100 mM Na pyruvate, 2.5 mg/ml glucose and 10% defined FBS (Hyclone #SH30070) per 500 mL media for 5–7 days to deplete intracellular folate levels prior to the start of the experiment. Where noted, cells were maintained in complete “high folate” RPMI-1640 media (ATCC #30-2001) with 10% defined FBS to contrast with the low folate conditions.
ZMP was detected in cultured cells via mass spec analysis. Cells were plated in 96-well plates at 25,000 cells per well in 100 µL with either high or low folate RPMI media and incubated overnight at 37 °C with 5% CO2. Cells were treated with inhibitor compounds for 16 hours, 0.5% DMSO final concentration. Growth media was decanted and cells were lysed for 10 min at room temperature with 50 µL per well of 1x Sure Fire Lysis buffer (Perkin Elmer, SureFire kit component). Aliquots (40 µL) of standard or sample were combined in a deep 96-well plate with 160 µL of internal standard solution containing ^13C5-ZMP (custom synthesis) and ^13C5-AICAr (custom synthesis) at 100 ng/mL in 40 mM ammonium acetate, pH 4. 400 µL of dichloromethane was added to each sample. Samples were sealed, vortexed for 5 minutes, and placed in the refrigerator for at least 30 minutes. The samples were centrifuged at 4 °C for 10 minutes at 16,600 g. 75 µL of the aqueous layer were transferred to a clean 96-well plate and seal prior to analysis.
The LC-MS method utilizes a Shimadzu Prominence 20 A HPLC system connected to an AB Sciex 5500™ or an AB Sciex 6500™ triple quadrupole mass spectrometer. Extracted samples were separated using a Thermo Hypercarb™ Javelin guard column (2.1 × 20 mm, 5 µm) with an injection volume of 15 µL and a flow rate of 1 mL/minute.
ZMP, AICAr and dUMP were detected using positive ion TurboIonSpray® multiple reaction monitoring mode and the data were processed with AB Sciex MultiQuant™. Back-calculated ZMP concentrations were fit to a four-parameter logistic equation using ACTIVITYBASE 4.0 to determine EC50 values relative to the maximum observed metabolite levels.

[8] = test system: A9 cells; assay: MS detection of ZMP and dUMP in cultured cells; type: cell-based, murine; details: A9; data not shown
Experimental: To mimic human plasma levels, low folate media is traditionally used in which the folate comes only from the defined fetal bovine serum. […] Because LSN3213128 would be dosed in mice on normal diet, cell line screening was performed under standard tissue culture conditions to identify cell lines sensitive to treatment under high folate conditions. In order to compare tissue culture values with tumor levels, an average 4 pL cell volume[36] was used to calculate cellular ZMP concentrations. In MDA-MB-231[…] cells using regular RPMI, the peak intracellular ZMP levels are about 770 μM while in the salvage deficient A9 cells ZMP is 6,500 μM. […] It is not surprising that in vivo in mice on standard chow where folate plasma levels are >10-fold lower than tissue culture that tumor ZMP levels are also lower. […] ZMP was detected in cultured cells via mass spec analysis. Cells were plated in 96-well plates at 25,000 cells per well in 100 μL with either high or low folate RPMI media and incubated overnight at 37 °C with 5% CO2. Cells were treated with inhibitor compounds for 16 hours, 0.5% DMSO final concentration. Growth media was decanted and cells were lysed for 10 min at room temperature with 50 μL per well of 1x Sure Fire Lysis buffer (Perkin Elmer, SureFire kit component). […] Samples were sealed, vortexed for 5 minutes, and placed in the refrigerator for at least 30 minutes. The samples were centrifuged at 4 °C for 10 minutes at 16,600 g. 75 μL of the aqueous layer were transferred to a clean 96-well plate and seal prior to analysis. The LC-MS method utilizes a Shimadzu Prominence 20 A HPLC system connected to an AB Sciex 5500TM or an AB Sciex 6500TM triple quadrupole mass spectrometer. […] […] dUMP were detected using positive ion TurboIonSpray® multiple reaction monitoring mode and the data were processed with AB Sciex MultiQuantTM. Back-calculated ZMP concentrations were fit to a four-parameter logistic equation using ACTIVITYBASE 4.0 to determine EC50 values relative to the maximum observed metabolite levels.

- IC50 [1]: 108 ± 78 µM
Compound: NC(=O)c1ncn([C@@H]2O[C@H](COP(=O)(O)O)[C@@H](O)[C@H]2O)c1N [ZMP, 5-aminoimidazole 4-carboxamide ribonucleotide]

- IC50 [2]: 10.1 µM
- IC50 [3]: 8.6 µM
- IC50 [4]: 9.2 µM
- IC50 [5]: 1.4 µM
- IC50 [6]: 5.6 µM
Compound: Nc1nc2[nH]cc(CCCc3ccc(C(=O)N[C@@H](CCC(=O)O)C(=O)O)cc3)c2c(=O)[nH]1 [N-({4-[3-(2-AMINO-4-HYDROXY-7H-PYRROLO[2,3-D]PYRIMIDIN-5-YL)PROPYL]PHENYL}CARBONYL)-L-GLUTAMIC ACID]

Compound: Nc1nc2c(c(=O)[nH]1)C[C@@H](CCc1ccc(C(=O)N[C@@H](CCC(=O)O)C(=O)O)cc1)CN2 [lometrexol, reference compound]
- effect on ZMP [7]: inhibits ZMP
- effect on ZMP [8]: inhibits ZMP
